From patent publication US9403801B2 (Calitor Sciences, LLC, priority 2014, dated 2016)

How the values were obtained:
[1] = Compound stability in human liver microsomes; format: in vitro ADME; settings: for half-life at 5 μM / T1/2: compound 5 μM, NADPH 1.0 mM, 37° C.
Summary of the method: (§1)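 After a 3-min preincubation, reactions of 5 μM compound with NADPH (1.0 mM) were started by adding microsomal protein to 0.5 mg/mL and run at 37° C in pH 7.4 phosphate buffer. Aliquots were stopped with ice-cold acetonitrile at up to 60 min. Parent levels were then measured by LC/MS/MS.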

[2] = Compound stability in rat liver microsomes; format: in vitro ADME
Summary of the method: as §1

[3] = Pharmacokinetics after intravenous and oral administration in rats; format: in vivo; settings: for Clearance (CL) after iv dosing / AUC(0-t) / half-life / Vd: dose 1 mg/kg (Ex. 27: 0.72 mg/kg), iv dosing; for F: oral bioavailability; for AUC(0-t) / half-life / Vd: rat, plasma; for Vd: read-out: Vss
Summary of the method: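 Rats were dosed 1 or 2 mg/kg IV or 5 or 10 mg/kg orally, as water solution, HPMC/Tween 80, DMSO/saline, MC suspension or capsule. Plasma was sampled from 0.083 or 0.25 h up to 24 h and quantified by LC/MS/MS in MRM mode with ESI.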

JAK1 (h) = JAK1 (h) (Homo sapiens (Human), UniProt P23458); assay: JAK1 kinase assay (33P-ATP filter binding, Millipore); format: biochemical
Sequence of JAK1 (h) (P23458 whole entry): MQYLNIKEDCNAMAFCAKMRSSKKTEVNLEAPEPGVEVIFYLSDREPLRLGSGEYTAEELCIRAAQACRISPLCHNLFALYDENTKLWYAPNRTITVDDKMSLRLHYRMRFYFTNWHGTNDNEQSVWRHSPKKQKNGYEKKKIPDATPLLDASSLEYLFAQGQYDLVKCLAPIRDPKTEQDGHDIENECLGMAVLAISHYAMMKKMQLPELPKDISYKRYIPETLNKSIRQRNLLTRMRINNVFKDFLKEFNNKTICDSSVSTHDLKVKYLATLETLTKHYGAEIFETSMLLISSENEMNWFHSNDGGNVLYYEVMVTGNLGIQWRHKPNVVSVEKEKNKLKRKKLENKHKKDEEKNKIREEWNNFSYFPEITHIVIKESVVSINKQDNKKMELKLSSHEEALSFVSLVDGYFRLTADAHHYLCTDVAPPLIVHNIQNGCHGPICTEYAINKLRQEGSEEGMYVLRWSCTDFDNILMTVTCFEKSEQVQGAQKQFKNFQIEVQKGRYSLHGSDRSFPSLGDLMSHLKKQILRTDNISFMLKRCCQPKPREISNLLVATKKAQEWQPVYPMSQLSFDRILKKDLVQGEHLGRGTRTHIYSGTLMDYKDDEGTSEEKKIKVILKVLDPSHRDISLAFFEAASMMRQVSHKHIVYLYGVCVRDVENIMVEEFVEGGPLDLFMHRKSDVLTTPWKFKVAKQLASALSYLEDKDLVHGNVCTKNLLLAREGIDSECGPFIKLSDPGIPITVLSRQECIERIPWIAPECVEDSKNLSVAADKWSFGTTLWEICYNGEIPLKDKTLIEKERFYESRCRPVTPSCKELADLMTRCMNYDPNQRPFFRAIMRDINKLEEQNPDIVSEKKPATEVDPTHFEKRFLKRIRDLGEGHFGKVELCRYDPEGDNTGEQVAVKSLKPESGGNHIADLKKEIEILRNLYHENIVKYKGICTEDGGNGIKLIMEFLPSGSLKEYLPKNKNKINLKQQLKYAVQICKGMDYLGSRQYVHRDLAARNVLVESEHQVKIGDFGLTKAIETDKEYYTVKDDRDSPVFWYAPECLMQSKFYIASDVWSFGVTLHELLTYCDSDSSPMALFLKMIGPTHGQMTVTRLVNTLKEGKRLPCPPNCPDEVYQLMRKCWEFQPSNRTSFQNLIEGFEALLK
Summary of the method: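 Radiometric assay of γ-33P-ATP incorporation into plate-immobilised MBP; kinase buffer pH 7.6 with 10 mM MgCl2, 10 μM unlabelled ATP typical, enzyme 10 or 20 nM final, 1% DMSO. Reactions ran 1 h at room temperature before scintillation counting. IC50 from 10-point half-log dilution curve, duplicates.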

JAK2 (h) = JAK2 (h) (Homo sapiens (Human), UniProt O60674); assay: JAK2 kinase assay (33P-ATP filter binding, Millipore); format: biochemical
Sequence of JAK2 (h) (O60674 whole entry): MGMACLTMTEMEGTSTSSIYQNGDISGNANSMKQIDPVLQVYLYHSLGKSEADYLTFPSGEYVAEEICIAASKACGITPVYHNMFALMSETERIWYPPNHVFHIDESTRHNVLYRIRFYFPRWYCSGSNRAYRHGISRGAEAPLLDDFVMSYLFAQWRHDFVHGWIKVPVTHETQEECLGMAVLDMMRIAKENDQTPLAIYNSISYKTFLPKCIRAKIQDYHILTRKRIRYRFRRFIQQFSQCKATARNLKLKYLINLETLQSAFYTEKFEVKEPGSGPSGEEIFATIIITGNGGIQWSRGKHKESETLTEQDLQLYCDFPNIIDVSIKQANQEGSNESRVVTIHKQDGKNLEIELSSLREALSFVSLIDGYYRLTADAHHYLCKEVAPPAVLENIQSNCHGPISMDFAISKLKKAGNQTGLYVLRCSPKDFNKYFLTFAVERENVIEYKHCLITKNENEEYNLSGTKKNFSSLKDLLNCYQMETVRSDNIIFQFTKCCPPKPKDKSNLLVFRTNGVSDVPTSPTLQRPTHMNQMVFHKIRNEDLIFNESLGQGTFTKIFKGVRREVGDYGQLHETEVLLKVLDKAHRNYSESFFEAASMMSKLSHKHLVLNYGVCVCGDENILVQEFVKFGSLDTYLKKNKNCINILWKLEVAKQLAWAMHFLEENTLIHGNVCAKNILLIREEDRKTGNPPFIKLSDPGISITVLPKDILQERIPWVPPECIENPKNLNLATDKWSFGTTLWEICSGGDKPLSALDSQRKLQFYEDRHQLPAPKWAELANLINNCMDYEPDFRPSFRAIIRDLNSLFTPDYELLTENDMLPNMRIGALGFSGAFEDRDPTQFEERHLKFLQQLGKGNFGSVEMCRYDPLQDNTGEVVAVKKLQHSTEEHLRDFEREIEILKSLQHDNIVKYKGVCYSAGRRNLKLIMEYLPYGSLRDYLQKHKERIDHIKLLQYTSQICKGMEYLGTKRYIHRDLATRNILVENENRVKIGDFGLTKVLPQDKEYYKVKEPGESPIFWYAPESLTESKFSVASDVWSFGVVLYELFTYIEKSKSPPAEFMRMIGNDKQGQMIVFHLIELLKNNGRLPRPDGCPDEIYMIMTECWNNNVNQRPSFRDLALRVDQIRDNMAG
Description: Kinase assays can be performed by measurement of incorporation of γ-^33P ATP into immobilized myelin basic protein (MBP). High binding white 384 well plates (Greiner) are coated with MBP (Sigma #M−1891) by incubation of 60 μL/well of 20 μg/mL MBP in Tris-buffered saline (TBS; 50 mM Tris pH 8.0, 138 mM NaCl, 2.7 mM KCl) for 24 h at 4° C. Plates are washed 3× with 100 μL TBS. Kinase reactions are carried out in a total volume of 34 μL in kinase buffer (5 mM Hepes pH 7.6, 15 mM NaCl, 0.01% bovine gamma globulin (Sigma #I-5506), 10 mM MgCl2, 1 mM DTT, 0.02% TritonX-100). Compound dilutions are performed in DMSO and added to assay wells to a final DMSO concentration of 1%. Each data point is measured in duplicate, and at least two duplicate assays are performed for each individual compound determination. Enzyme is added to final concentrations of 10 nM or 20 nM, for example. A mixture of unlabeled ATP and γ-^33P ATP is added to start the reaction (2×10^6 cpm of γ-^33P ATP per well (3000 Ci/mmole) and 10 μM unlabeled ATP, typically. The reactions are carried out for 1 h at room temperature with shaking. Plates are washed 7× with TBS, followed by the addition of 50 μL/well scintillation fluid (Wallac). Plates are read using a Wallac Trilux counter. This is only one format of such assays; various other formats are possible, as known to one skilled in the art.
The above assay procedure can be used to determine the IC50 for inhibition and/or the inhibition constant, Ki. The IC50 is defined as the concentration of compound required to reduce the enzyme activity by 50% under the condition of the assay. The IC50 value is estimated by preparing a 10 point curve using a 1/2 log dilution series (for example, a typical curve may be prepared using the following compound concentrations: 3 μM, 1 μM, 0.3 μM, 0.1 μM, 0.03 μM, 0.01 μM, 0.003 μM, 0.001 μM, 0.0003 μM and 0 μM).
The kinase assays described herein were performed at Millipore UK Ltd, Dundee Technology Park, Dundee DD2 1SW, UK.

[4] = human, liver microsomes, pH 7.4, Human liver microsomes 0.5 mg protein/mL
[5] = human, liver microsomes, pH 7.4, Human liver microsomes, in vivo CLint extrapolated
[6] = rat, liver microsomes, pH 7.4, Rat liver microsomes 0.5 mg protein/mL, compound 5 μM, NADPH 1.0 mM, 37° C.
[7] = rat, liver microsomes, pH 7.4, Rat liver microsomes, in vivo CLint extrapolated
[8] = Human liver microsomes 0.5 mg protein/mL
[9] = pH 7.4, Rat liver microsomes 0.5 mg protein/mL, compound 5 μM, NADPH 1.0 mM, 37° C.
[10] = pH 7.4, Rat liver microsomes, in vivo CLint extrapolated
[11] = pH 7.4, Human liver microsomes 0.5 mg protein/mL
[12] = pH 7.4, Human liver microsomes, in vivo CLint extrapolated

| SMILES | half-life at 5 μM [1, 4] [min] | CLint scaled at 5 μM [1, 5] [mL/min/kg] | half-life at 5 μM [2, 6] [min] | CLint scaled at 5 μM [2, 7] [mL/min/kg] | Clearance (CL) after iv dosing [3] [mL/min/kg] | F [3] [%] | AUC(0-t) [3] [ng·h/mL] | half-life [3] [min] | Vd [3] [L/kg] | IC50 (JAK1 (h)) [nM] | IC50 (JAK2 (h)) [nM] | T1/2 [1, 8] | CLint ([1]; Human liver microsomes, in vivo CLint extrapolated) [mL/min/kg] | T1/2 ([2]; Rat liver microsomes 0.5 mg protein/mL, compound 5 μM, NADPH 1.0 mM, 37° C.) [min] | CLint ([2]; Rat liver microsomes, in vivo CLint extrapolated) [mL/min/kg] | half-life at 5 μM [2, 9] [min] | CLint scaled at 5 μM [2, 10] [mL/min/kg] | half-life at 5 μM [1, 11] [min] | CLint scaled at 5 μM [1, 12] [mL/min/kg] |
| --- | --- | --- | --- | --- | --- | --- | --- | --- | --- | --- | --- | --- | --- | --- | --- | --- | --- | --- | --- |
| CN(c1nc(Nc2cnn(C)c2)ncc1Cl)C1CCC2(CC1)CCN(C(=O)CC#N)C2 (single isomer, unassigned) [Ex. 4A, 3-(8-((5-chloro-2-((1-methyl-1H-pyrazol-4-yl)amino)pyrimidin-4-yl)(methyl)amino)-2-azaspiro[4.5]decan-2-yl)-3-oxopropanenitrile] | 37.3 | 46.6 | 12.4 | 200 | 48.8 | 21.81 | 345 | 51.6 | 1.38 | 20 | 83 | – | – | – | – | – | – | – | – |
| Cn1cc(Nc2ncc(Cl)c(NC3CCC4(CC3)CCN(C(=O)CC#N)C4)n2)cn1 (single isomer, unassigned) [Ex. 14B, 3-(8-((5-chloro-2-((1-methyl-1H-pyrazol-4-yl)amino)pyrimidin-4-yl)amino)-2-azaspiro[4.5]decan-2-yl)-3-oxopropanenitrile] | – | – | – | – | 86.8 | 12.7 | 193 | 29.4 | 2.41 | 2 | 15 | 171.8 min | 10.12 | 71.63 | 34.67 | – | – | – | – |
| Cc1cnc(Nc2cnn(C)c2)nc1NC1CCC2(CC1)CCN(C(=O)CC#N)C2 (stereo not shown) [Ex. 10, 3-(8-((5-methyl-2-((1-methyl-1H-pyrazol-4-yl)amino)pyrimidin-4-yl)amino)-2-azaspiro[4.5]decan-2-yl)-3-oxopropanenitrile] | 1510 | 1.15 | 52.6 | 47.2 | – | – | – | – | – | 7 | 129 | – | – | – | – | – | – | – | – |
| Cn1cc(Nc2ncc(Cl)c(NC3CC4CNCC4C3)n2)cn1 (stereo not shown) [Ex. 11, 5-chloro-N^2-(1-methyl-1H-pyrazol-4-yl)-N^4-(octahydrocyclopenta[c]pyrrol-5-yl)pyrimidine-2,4-diamine] | – | – | – | – | 105 | 18.13 | 146 | 151 | 18.6 | 27 | 176 | ∞ | – | – | – | 17.7 | 140 | – | – |
| Cn1cc(Nc2ncc(Cl)c(NC3CCC4CN(C(=O)CC#N)CC4C3)n2)cn1 (stereo not shown) [Ex. 22, 3-(5-((5-chloro-2-((1-methyl-1H-pyrazol-4-yl)amino)pyrimidin-4-yl)amino)hexahydro-1H-isoindol-2(3H)-yl)-3-oxopropanenitrile] | – | – | – | – | 94.8 | 22.6 | 176 | 25.8 | 2.02 | 2 | 6 | – | – | – | – | 12.2 | 204 | 158 | 11 |
| Cc1cnc(Nc2cnn(C)c2)nc1NC1CCC2(CC1)CCN(C(=O)CC#N)CC2 [Ex. 25, 3-(9-((5-methyl-2-((1-methyl-1H-pyrazol-4-yl)amino)pyrimidin-4-yl)amino)-3-azaspiro[5.5]undecan-3-yl)-3-oxopropanenitrile] | 522 | 3.33 | 16.8 | 148 | – | – | – | – | – | 6 | 86 | – | – | – | – | – | – | – | – |
| Cn1cc(Nc2ncc(Cl)c(NC3CCC4(CC3)CCN(c3ccc(C#N)cn3)CC4)n2)cn1 [Ex. 27, 6-(9-((5-chloro-2-((1-methyl-1H-pyrazol-4-yl)amino)pyrimidin-4-yl)amino)-3-azaspiro[5.5]undecan-3-yl)nicotinonitrile] | 21.8 | 79.7 | 9.2 | 270 | 27.8 | 15.0 | 452 | 46.2 | 1.74 | 4 | 23 | – | – | – | – | – | – | – | – |
| Cn1cc(Nc2ncc(Cl)c(NC3CCC4(CC3)CCN(S(C)(=O)=O)CC4)n2)cn1 [Ex. 29, 5-chloro-N^2-(1-methyl-1H-pyrazol-4-yl)-N^4-(3-(methylsulfonyl)-3-azaspiro[5.5]undecan-9-yl)pyrimidine-2,4-diamine] | 83.8 | 20.8 | 40.3 | 61.6 | 45.7 | 19.1 | 382 | 49.2 | 2.05 | 2 | 5 | – | – | – | – | – | – | – | – |
| Cn1cc(Nc2ncc(Cl)c(NC3CCC4(CC3)CCN(C(=O)C(F)(F)F)CC4)n2)cn1 [Ex. 30, 1-(9-((5-chloro-2-((1-methyl-1H-pyrazol-4-yl)amino)pyrimidin-4-yl)amino)-3-azaspiro[5.5]undecan-3-yl)-2,2,2-trifluoroethanone] | 38 | 45.7 | 24.2 | 103 | 45.7 | 26.1 | 370 | 69 | 4.77 | 0.9 | 5 | – | – | – | – | – | – | – | – |
| Cn1cc(Nc2ncc(Cl)c(NC3CC4CN(C(=O)C(F)(F)F)CC4C3)n2)cn1 (stereo not shown) [Ex. 34, 1-(5-((5-chloro-2-((1-methyl-1H-pyrazol-4-yl)amino)pyrimidin-4-yl)amino)hexahydrocyclopenta[c]pyrrol-2(1H)-yl)-2,2,2-trifluoroethanone] | – | – | – | – | – | – | – | – | – | 2 | 17 | – | – | – | – | 2.31 | 1080 | 19 | 91.6 |
| Cn1cc(Nc2ncc(Cl)c(NC3CC4CN(CC(F)(F)F)CC4C3)n2)cn1 (stereo not shown) [Ex. 35, 5-chloro-N^2-(1-methyl-1H-pyrazol-4-yl)-N^4-(2-(2,2,2-trifluoroethyl)octahydrocyclopenta[c]pyrrol-5-yl)pyrimidine-2,4-diamine] | – | – | – | – | – | – | – | – | – | 2 | 8 | – | – | – | – | 2.72 | 913 | 6.65 | 261 |
| Cn1cnc(Nc2ncc(Cl)c(NC3CCC4(CC3)CCN(C(=O)CC#N)CC4)n2)c1 [Ex. 42, 3-(9-((5-chloro-2-((1-methyl-1H-imidazol-4-yl)amino)pyrimidin-4-yl)amino)-3-azaspiro[5.5]undecan-3-yl)-3-oxopropanenitrile] | 48.9 | 35.6 | 31.5 | 78.8 | – | – | – | – | – | 3 | 12 | – | – | – | – | – | – | – | – |
